Source: PMC7600788, “Sequence Permutation Generates Peptides with Different Antimicrobial and Antibiofilm Activities” (Pharmaceuticals, 2020)
No end group written: not given here.

Legend:
[1] = tested on: monkey kidney Vero E6 cells; format: cell-based
Experimental: Peptides were assayed for potential in vitro toxicity against human keratinocytes (HaCaT) and THP-1 cells as previously described. THP-1 monocytes were differentiated into macrophages by adding 30 ng/mL of phorbol 12-myristate 13-acetate (PMA; Sigma-Aldrich) to RPMI 1640 supplemented with 10% fetal calf serum culture (FCS) medium for 16 h. Briefly, cells were seeded at a density of 3 × 10^4 per well in a tissue culture 96-well plate in DMEM/RPMI supplemented with 10% fetal bovine serum (FBS), and incubated at 37 °C in a 5% CO2 atmosphere for 24 h. African green monkey kidney Vero E6 cells were cultivated in EMEM in the same manner. Before antimicrobial treatment, wells were replaced with serum free media and treated with peptides at different concentrations for one hour. After incubation, the cells were washed and incubated with 100 μL of DMEM media containing 20 μL of 3-(4,5-dimethylthiazol-2-yl)-5-(3-carboxymethoxyphenyl)-2-(4-sulfophenyl)-2H-tetrazolium (MTS) reagent for two hours at 37 °C. […] Absorbance readings at 492 nm were taken using a ChroMate microplate reader (GMI, Ramsey, MN, USA).

S. aureus USA300 LAC [2] = assay: Inhibition of biofilm attachment (XTT); format: cell-based, Staphylococcus aureus; details: concentration series, Figure 6A
Text: Antimicrobial effects of the peptides are different on diverse forms of bacteria. The free and motile forms cultivated in laboratories are the planktonic bacteria onto which the peptides and antibiotics can have direct effects. However, the activity of the microbicides can be reduced to the biofilm forms where bacteria are less exposed and hidden inside the shield. The development of the biofilms starts with the attachment of the individual cells on the substratum followed by biofilm growth and maturation into more solid biomass. We tested the ability of WW295 and WW298 in fighting the biofilms of S. aureus USA300 LAC at the two stages. […] These 96-well commercial plates were pre-treated commercially with tissue culture to enhance cell adhesion.
This experiment was performed to measure the ability of the peptide to inhibit bacterial attachment, the initial step for biofilm formation. In short, an overnight culture of S. aureus USA300 was grown in TSB media to an optical density (600 nm) of ∼1.0. […] Live cells in the biofilms were then quantitated using XTT [2,3-bis(2-methyloxy-4-nitro-5-sulfophenyl)-2H-tertazolium-5-carboxanilide] assay by following the manufacturer’s instructions with modifications. […] Absorbance at 450 nm (only media with XTT containing wells served as the blank) was obtained using a Chromate^TM microtiter plate reader. […]

S. aureus USA300 LAC [3] = assay: Disruption of 24 h established biofilms (XTT); format: cell-based, Staphylococcus aureus; details: 12.5 µM, highest concentration tested, 24 h treatment
Experimental: We also compared the effects of the peptides on established biofilms (24 h). […] When cells are alive (in the absence of peptide), the cell-permeant calcein-AM dye could enter the cells and gave green color as a consequence of the removal of acetoxymethyl (AM) esters by intracellular esterase (Figure 7A). When the cells were dead due to membrane damage by the peptide, the red dye ethidium homodimer (non-membrane permeable) could enter the cell and become red by binding to nucleic acids (Figure 7B).
The antibiofilm activity of the peptide against 24 h established biofilms was evaluated as previously described. In short, S. aureus USA300 LAC (10^5 CFU/mL) was made from exponential phase bacteria in TSB media and 180 μL were distributed to each well of the microtiter plate (Corning Costar Cat No. 3595, Amsterdam, The Netherlands). The plates were incubated at 37 °C for 24 h to form a biofilm. Culture treated with water served as a positive control while media without bacterial inoculation served as the negative control. Media were then pipetted out and the attached biofilms were washed with 1× PBS to remove the planktonic bacteria. Each well of the plate was then filled with 20 μL of 10× peptide solution and 180 μL of fresh TSB media and the plates were further incubated at 37 °C for 24 h. Media were then pipetted out and the wells were washed with 1× PBS to remove planktonic cells. The live cells in biofilms were estimated by XTT assay as mentioned above.

human red blood cells = assay: Hemolytic assay; format: cell-based; details: red cells of human
Experimental: (§1) Hemolytic assays of peptides were performed as previously described. Briefly, human red blood cells (hRBCs) obtained from UNMC Blood Bank, or chicken or porcine blood cells purchased from commercial sources as previously described, were washed three times with phosphate buffer saline (PBS) and diluted to a 2% solution (V/v). After peptide treatment, incubation at 37 °C for one hour, and centrifugation at 13,000 rpm, aliquots of the supernatant were carefully transferred to a fresh 96-well microplate. The amount of hemoglobin released was measured at 545 nm. The percent lysis was calculated by assuming 100% release when human blood cells were treated with 2% Triton X-100, and 0% release when incubated with PBS buffer. The peptide concentration that caused 50% lysis of hRBCs is defined as HC50.

chicken red blood cells = assay: Hemolytic assay; format: cell-based
Experimental: as §1

Pig RBC = assay: Hemolytic assay; format: cell-based
Experimental: as §1

S. aureus USA300 LAC [4] = format: cell-based, Staphylococcus aureus; details: USA300
Experimental: To gain additional insight, we also compared the effects of physiological saline and human serum on the antibacterial activities of WW291-WW298 using both E. coli and S. aureus (Table 3). In our assays, salts and serum were present during the entire course of the experiment. […] Thus, WW295 and WW298 stand out in terms of activity robustness (bold in Table 3).
The antibacterial activity of peptides was evaluated using a standard broth microdilution protocol with minor modifications as previously described. In brief, logarithmic phase bacterial cultures (i.e., optical density at 600 nm ≈ 0.5) were diluted to OD600~0.001 and partitioned into a 96-well polystyrene microplate at 90 μL per well. After treatment with 10 μL of peptide solutions two-fold diluted to various concentrations, microplates were incubated at 37 °C overnight and read on a ChroMate 4300 Microplate Reader at 630 nm (GMI, Ramsey, MN). […] Minimal bactericidal concentration (MBC) was determined by plating the clear wells at MIC or above. The peptide concentration that caused no bacterial growth on the petri dish is MBC.

Sequence: RKIWWWWL [WW295]
- Vero Cells, concentration that caused 50% cell death (LC50) [1]: >100 µM
- effect on surface adherence of MRSA (in words) (S. aureus USA300 LAC [2]): did not show any effects
- disruption of established biofilms (24 h) (S. aureus USA300 LAC [3]): did not disrupt MRSA biofilms significantly
- Human RBC, concentration that caused 50% red blood cell lysis (HC50) (human red blood cells): 57 µM
- Chicken RBC, concentration that caused 50% red blood cell lysis (HC50) (chicken red blood cells): 100 µM
- Pig RBC, concentration that caused 50% red blood cell lysis (HC50) (Pig RBC): >100 µM
- MIC, +150 mM NaCl (S. aureus USA300 LAC [4]): 3.1 µM
- MIC, +10% Human Serum (S. aureus USA300 LAC [4]): 12.5 µM
- MIC, TSB (S. aureus USA300 LAC [4]): 3.1 µM
